O=Cc1ccc(O)cc1
solubility (mole fraction)
Conditions | in ethyl acetate | in isopropanol | in methanol | in n-butanol | in n-propanol | in toluene
278.15 K | – | 0.0535 | 0.0342 | 0.0545 | 0.0532 | 0.000979
280.65 K | 0.0787 | 0.0607 | 0.0392 | 0.0615 | 0.0597 | 0.00109
283.15 K | 0.0877 | 0.0683 | 0.0449 | 0.0692 | 0.0669 | 0.00119
285.65 K | 0.0968 | 0.0773 | 0.0516 | 0.0775 | 0.0751 | 0.00133
288.15 K | 0.106 | 0.0868 | 0.0587 | 0.0864 | 0.0836 | 0.00146
290.65 K | 0.117 | 0.0972 | 0.0668 | 0.0963 | 0.093 | 0.00162
293.15 K | 0.129 | 0.109 | 0.076 | 0.107 | 0.103 | 0.00178
295.65 K | 0.141 | 0.121 | 0.0858 | 0.118 | 0.114 | 0.00197
298.15 K | 0.155 | 0.134 | 0.0969 | 0.13 | 0.125 | 0.00217
300.65 K | 0.169 | 0.148 | 0.109 | 0.143 | 0.138 | 0.00236
303.15 K | 0.184 | 0.164 | 0.121 | 0.157 | 0.151 | 0.00259
305.65 K | 0.2 | 0.18 | 0.136 | 0.171 | 0.165 | 0.00283
308.15 K | 0.216 | 0.198 | 0.151 | 0.187 | 0.18 | 0.00309
310.65 K | 0.234 | 0.218 | 0.168 | 0.203 | 0.196 | 0.0034
313.15 K | 0.251 | 0.238 | 0.186 | 0.22 | 0.213 | 0.00367
315.65 K | 0.272 | 0.259 | 0.205 | 0.239 | 0.23 | 0.00399
318.15 K | 0.293 | 0.281 | 0.224 | 0.259 | 0.249 | 0.00435
